Columns and labels:
[1] = system: water load-induced elevation of intraocular pressure; experiment: Effect on water load-induced elevation of intraocular pressure, water load test (Experiment 2); type: in vivo, male New Zealand white rabbits; settings: 2.0% sample solution
Method: In the following Experiments 1 to 6, the test animals used were male New Zealand white rabbits, each weighing about 2.5 kg, raised in a room where the room temperature, relative humidity and lighting time were controlled to be 23° C, 60% and from 07:00 to 19:00, respectively. The animals were chosen from those where no abnormalities could be detected in their eyes by observation with the naked eye. They were given water freely but feed was restricted. The compound under test was dissolved in 100 mM of a sodium phosphate buffer solution (pH 7.2) containing a small amount of a 0.1 N aqueous solution of sodium hydroxide. In the case of timolol maleate, a 0.5% w/v eye lotion (Timoptol 0.5%, Santen Pharm. Co.) was used as such. Each rabbit was anesthetized with urethane (1.0 g/kg, i.v.), and the IOP values of both eyes were measured. Immediately thereafter, 50 µℓ of the sample solution was applied to one eye (test eye). To the other eye (control eye), 50 µℓ of the vehicle alone was applied. Ninety minutes after this application, the values of IOP were measured and then the water load test was performed as follows. Sixty ml/kg of tap water was given compulsorily per os to the anesthetized rabbit, and then the values of IOP for both eyes were measured with the passage of time. In this Experiment, the test compound was the compound of Example 19(b), i.e. 9'-(4-acetoxybenzyl) griseolate.

[2] = system: Normal intraocular pressure; experiment: Normal intraocular pressure lowering effect (Experiment 3); type: in vivo, male New Zealand white rabbits; settings: 2.0% sample solution, p < 0.05
Method: In the following Experiments 1 to 6, the test animals used were male New Zealand white rabbits, each weighing about 2.5 kg, raised in a room where the room temperature, relative humidity and lighting time were controlled to be 23° C, 60% and from 07:00 to 19:00, respectively. The animals were chosen from those where no abnormalities could be detected in their eyes by observation with the naked eye. They were given water freely but feed was restricted. The compound under test was dissolved in 100 mM of a sodium phosphate buffer solution (pH 7.2) containing a small amount of a 0.1 N aqueous solution of sodium hydroxide. In the case of timolol maleate, a 0.5% w/v eye lotion (Timoptol 0.5%, Santen Pharm. Co.) was used as such. The corneal surface was anesthetized by the application of oxybuprocain hydrochloride (Benoxil 0.4% solution, Santen Pharm. Co.), and the IOP was measured by means of an Alcon Applanation Pneumatograph (Japan Alcon) in rabbits. The measurements were carried out 2 or 3 times for each eye, and the mean value was calculated and is regarded as the value of IOP. After determination of the IOP, 25 µℓ of a sample solution was applied to one eye (test eye) three times every two minutes, and the same volume of the vehicle alone was applied to the other eye (control eye). The values of IOP of both eyes were measured with the passage of time. In this Experiment, the test compound was the compound of Example 19(b).

IOP = IOP lowering effect, area between IOP-time curves (Experiment 6); type: in vivo, male New Zealand white rabbits; settings: Concentration 2.0 %; 25 µℓ three times every 2 minutes; ratio of areas between IOP lines
Method: In the following Experiments 1 to 6, the test animals used were male New Zealand white rabbits, each weighing about 2.5 kg, raised in a room where the room temperature, relative humidity and lighting time were controlled to be 23° C, 60% and from 07:00 to 19:00, respectively. The animals were chosen from those where no abnormalities could be detected in their eyes by observation with the naked eye. They were given water freely but feed was restricted.
The compound under test was dissolved in 100 mM of a sodium phosphate buffer solution (pH 7.2) containing a small amount of a 0.1 N aqueous solution of sodium hydroxide. In the case of timolol maleate, a 0.5% w/v eye lotion (Timoptol 0.5%, Santen Pharm. Co.) was used as such.
The cornea of the rabbit was anesthetized by the topical application of one or two drops of 0.4% oxybuprocaine hydrochloride. The IOP was measured two or three times for each eye and the mean value was calculated and is reported as the IOP value. After the IOP of the rabbit eye had been measured, 25 µℓ of the sample solution was applied to center of the cornea of one eye three times every 2 minutes. The other eye was treated with the vehicle alone in a similar way. The IOP of both eyes was then measured.
IOP values obtained from both eyes were plotted against times after application and the area enclosed by the two IOP lines (with and without the active compound) was calculated. The IOP lowering effect of each sample was expressed as a ratio of the area described above to that of 0.5^0/o timolol.

Male F344 rats = experiment: Acute toxicity in the rat (Experiment 7); type: in vivo; settings: single, observation one week
Method: Animals: Male F344 rats were used, each group consisting of 3 animals.
Drug preparation and administration: the compound of Example 19(b) was dissolved in distilled water and administered subcutaneously to the rats in a volume of 0.5 ml per 100 g of body weight. Observation of the rats was carried out over a period of one week.

eyes = experiment: Eye irritation by the Draize method (Experiment 11); type: in vivo, male New Zealand white rabbit; settings: 2% by weight solution, 0.05 ml three times a day for seven days, right eye
Method: The irritation to the eyes caused by solutions of the compound of Example 19(b) was determined by the Draize method [J.H. Draize et af., J. Pharmacol. Exp. Ther., 82,377 (1944)] and evaluated by the method of Kay and Calandra [J.H. Kay and J.C. Calandra, J. Soc. Cosmet. Chem., 13, 281 (1962)].
The test solution employed was a simple solution of 2% by weight of the test compound in 100 mM of a sodium phosphate buffer (pH 7.2) for injections and adjusted to a pH value of from 7 to 8, as required.
A male New Zealand white rabbit of body weight about 2.5 kg was placed in a pillory to fix its head. 0.05 ml of the test solution was instilled into its right eye three times a day (at 09:00, 13:00 and 17:00) for seven days. The symptoms experienced by the anterior portion of the right eye were observed every day at 18:00 over a period of seven days, and the irritation observed was scored.

Balb/3T3 cells = settings: 10 min, 500 µM
Method: Balb/3T3 cells were incubated in Dulbecco's modified Eagle medium (glucose-rich) containing 100/o v/v bovine fetal serum. […] The sample was then dissolved in a buffer solution prepared by the further addition of 4 mM of calcium chloride to the buffer solution mentioned above. If the sample was difficult to dissolve in water, it was dissolved first in dimethyl sulphoxide (DMSO) and then the resulting solution was diluted with the buffer (the final concentration of DMSO was determined to be 0.1%). The cell suspension was preincubated at 30° C for 5 minutes, and 100 µℓ of this suspension were added to 100 µℓ of the sample solution to initiate enzymatic reaction. After incubation at 30° C for 10 minutes, 20 µℓ of 1 N aqueous hydrochloric acid was added to stop the reaction. The reaction mixture was then centrifuged at 3000 rpm for 3 minutes to obtain 100 µℓ of the supernatant. Cyclic 3',5'-adenosine monophosphate (cAMP) contained in the supernatant was quantitatively analyzed by radioimmunoassay using a Yamasa cAMP radioimmunoassay kit YSI-7701. The CAMP accumulating effect is reported as the ratio between the value measured using a test compound and that measured in the control.

[3] = set-up: species or system Male albino rabbits; settings: rabbit, in vivo

SMILES: CC(=O)Oc1ccc(COC(=O)C23C=C(C(O)C(=O)O)OC2C(O)C(n2cnc4c(N)ncnc42)O3)cc1 (stereo not shown) [Example 19(b), 9'-(4-Acetoxybenzyl) griseolate]
- IOP of test eye ([1]; 50 µℓ, 90 minutes after application, before water loading, control eye 17.1 ± 1.1): 16.8 ± 1.0 mmHg
- IOP of test eye ([1]; 0.5 hours after water loading (60 ml/kg per os), control eye 28.7 ± 1.8, p < 0.05): 25.6 ± 2.2 mmHg
- IOP of test eye ([1]; 1.0 hours after water loading, control eye 26.3 ± 2.4, p < 0.05): 22.6 ± 2.3 mmHg
- IOP of test eye ([1]; 1.5 hours after water loading, control eye 20.3 ± 1.6, p < 0.05): 17.5 ± 1.2 mmHg
- IOP of test eye ([1]; 2.0 hours after water loading, control eye 17.4 ± 1.5): 17.1 ± 1.1 mmHg
- IOP of test eye ([1]; 2.5 hours after water loading, control eye 17.4 ± 1.9, p < 0.05): 15.6 ± 1.5 mmHg
- IOP of test eye ([2]; 25 µℓ three times every two minutes, one hour after application, control eye 20.7 ± 1.4): 19.5 ± 1.4 mmHg
- IOP of test eye ([2]; 2 hours after application, control eye 21.4): 19.3 ± 1.3 mmHg
- IOP of test eye ([2]; 5 hours after application, control eye 22.8 ± 0.5): 20.6 ± 0.7 mmHg
- IOP Lowering Effect (Ratio to 0.5% timolol) (IOP): 2.35
- death rate (Male F344 rats; dose 25 mg/kg subcutaneously): 0/3
- death rate (Male F344 rats; dose 50 mg/kg subcutaneously): 0/3
- death rate (Male F344 rats; dose 100 mg/kg subcutaneously): 3/3
- irritation to the eyes (eyes): No significant stimulus was observed
- cAMP accumulating effect (Balb/3T3 cells): 16
- IP [3]: 5.1 ± 0.5 mg/dL

Reference: patent EP0319316A2, “Griseolic acid monoesters, their preparation and use” (SANKYO COMPANY LIMITED, priority 1987, dated 1989)
